# Target: PA1221 (Pseudomonas aeruginosa, UniProt Q9I4B7)
# Assay: […]-PPi exchange assay
# Format: biochemical
# Details: 2 mM ATP, 0.2 mM PPi, 1 mM MgCl2, pH 7.5, 37 °C
Structure (SMILES),32P-PPi exchange assay (5 mM Ile),32P-PPi exchange assay (5 mM valine)
"CC[C@H](C)[C@H](N)C(=O)O [I, Ile]","Ile, Leu, and Ala utilized as substrates at a lower rate",–
"CC(C)[C@H](N)C(=O)O [V, valine]",–,Valine resulted in the highest activity
